# From US20240165139A1, “GALACTOPYRANOSYL-CYCLOHEXYL DERIVATIVES AS E-SELECTIN ANTAGONISTS” (GLYCOMIMETICS, INC., priority 2017, published 2024)
# Target: E-selectin (Homo sapiens, UniProt P16581)
# Assay: E-Selectin Activity - competitive binding assay (sLe^a polyacrylamide conjugate vs immobilized E-selectin/Ig chimera)
# Settings: concentration required to inhibit binding of sLe^a conjugate to immobilized E-selectin/Ig chimera by 50%
# Experimental: The inhibition assay to screen for and characterize glycomimetic antagonists of E-selectin is a competitive binding assay, which allows the determination of IC50 values. E-selectin/Ig chimera was immobilized in 96 well microtiter plates by incubation at 37° C. for 2 hours. To reduce nonspecific binding, bovine serum albumin was added to each well and incubated at room temperature for 2 hours. The plate was washed and serial dilutions of the test compounds were added to the wells in the presence of conjugates of biotinylated, sLe^a polyacrylamide with streptavidin/horseradish peroxidase and incubated for 2 hours at room temperature.
# To determine the amount of sLe^a bound to immobilized E-selectin after washing, the peroxidase substrate, 3,3′,5,5′ tetramethylbenzidine (TMB) was added. After 3 minutes, the enzyme reaction was stopped by the addition of H3PO4, and the absorbance of light at a wavelength of 450 nm was determined.
# Chain of E-selectin (P16581 22-610 limits assumed): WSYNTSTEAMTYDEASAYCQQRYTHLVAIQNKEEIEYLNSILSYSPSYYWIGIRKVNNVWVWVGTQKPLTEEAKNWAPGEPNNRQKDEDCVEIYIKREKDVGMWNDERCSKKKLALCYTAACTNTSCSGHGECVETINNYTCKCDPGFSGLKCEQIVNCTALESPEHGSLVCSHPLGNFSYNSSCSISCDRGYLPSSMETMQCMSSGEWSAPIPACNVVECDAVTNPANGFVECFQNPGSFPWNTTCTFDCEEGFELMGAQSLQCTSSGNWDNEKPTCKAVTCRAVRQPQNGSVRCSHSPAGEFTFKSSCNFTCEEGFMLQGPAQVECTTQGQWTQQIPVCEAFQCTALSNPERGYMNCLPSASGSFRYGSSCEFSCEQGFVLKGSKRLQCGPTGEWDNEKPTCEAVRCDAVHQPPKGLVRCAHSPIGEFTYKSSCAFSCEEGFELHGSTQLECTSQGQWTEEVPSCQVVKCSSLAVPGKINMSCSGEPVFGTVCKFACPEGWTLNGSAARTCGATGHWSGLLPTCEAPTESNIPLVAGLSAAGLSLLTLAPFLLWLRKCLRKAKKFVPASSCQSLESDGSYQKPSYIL
row,Structure (SMILES),IC50 [nM]
1,CCC1CC(C(=O)NCCNC(=O)c2cn(CCCOS(=O)(=O)O)nn2)C[C@@H](O[C@@H]2O[C@@H](CO)[C@H](O)C(O[C@@H](CC3CCCCC3)C(=O)N3CCC3)C2NC(C)=O)[C@@H]1O[C@@H]1OC(C)[C@@H](O)[C@H](O)C1O (stereo partly drawn) [Compound 19],580
2,CCC1CC(C(=O)NCCNC(=O)[C@@H](OS(=O)(=O)O)[C@H](COS(=O)(=O)O)OS(=O)(=O)O)C[C@@H](O[C@@H]2O[C@@H](CO)[C@H](O)C(O[C@@H](CC3CCCCC3)C(=O)O)C2NC(C)=O)[C@@H]1O[C@@H]1OC(C)[C@@H](O)[C@H](O)C1O (stereo partly drawn) [Compound 25],660
3,CCC1CC(C(=O)NCCNC(=O)CCOCCOCCNC(=O)c2cn(C(COS(=O)(=O)O)(COS(=O)(=O)O)COS(=O)(=O)O)nn2)C[C@@H](O[C@@H]2O[C@@H](CO)[C@H](O)C(O[C@@H](CC3CCCCC3)C(=O)O)C2NC(C)=O)[C@@H]1O[C@@H]1OC(C)[C@@H](O)[C@H](O)C1O (stereo partly drawn) [Compound 46],192
4,CCC1CC(C(=O)NCCNC(=O)CC(CS(=O)(=O)O)S(=O)(=O)O)C[C@@H](O[C@@H]2O[C@@H](CO)[C@H](O)C(O[C@@H](CC3CCCCC3)C(=O)O)C2NC(C)=O)[C@@H]1O[C@@H]1OC(C)[C@@H](O)[C@H](O)C1O (stereo partly drawn) [Compound 31],2360
5,CCC1CC(C(=O)NCCNC(=O)c2cn(CC(CO)(CO)CO)nn2)C[C@@H](O[C@@H]2O[C@@H](CO)[C@H](O)C(O[C@@H](CC3CCCCC3)C(=O)N3CCC3)C2NC(C)=O)[C@@H]1O[C@@H]1OC(C)[C@@H](O)[C@H](O)C1O (stereo partly drawn) [Compound 20],240
6,CCC1CC(C(=O)NCCNC(=O)CC(C)S(=O)(=O)O)C[C@@H](O[C@@H]2O[C@@H](CO)[C@H](O)C(O[C@@H](CC3CCCCC3)C(=O)O)C2NC(C)=O)[C@@H]1O[C@@H]1OC(C)[C@@H](O)[C@H](O)C1O (stereo partly drawn) [Compound 30],2780
7,CCC1CC(C(=O)NCCNC(=O)[C@@H](OS(=O)(=O)O)[C@@H](COS(=O)(=O)O)OS(=O)(=O)O)C[C@@H](O[C@@H]2O[C@@H](CO)[C@H](O)C(O[C@@H](CC3CCCCC3)C(=O)O)C2NC(C)=O)[C@@H]1O[C@@H]1OC(C)[C@@H](O)[C@H](O)C1O (stereo partly drawn) [Compound 24],190
8,CCC1CC(C(=O)NCCNC(=O)CCCC(=O)O)C[C@@H](O[C@@H]2O[C@@H](CO)[C@H](O)C(O[C@@H](CC3CCCCC3)C(=O)O)C2NC(C)=O)[C@@H]1O[C@@H]1OC(C)[C@@H](O)[C@H](O)C1O (stereo partly drawn) [Compound 36],510
9,CCC1CC(C(=O)NCCNC(=O)CCCS(=O)(=O)O)C[C@@H](O[C@@H]2O[C@@H](CO)[C@H](O)C(O[C@@H](CC3CCCCC3)C(=O)O)C2NC(C)=O)[C@@H]1O[C@@H]1OC(C)[C@@H](O)[C@H](O)C1O (stereo partly drawn) [Compound 33],2120
10,CCC1CC(C(=O)NCCNC(=O)c2cn(CC(CO)(COS(=O)(=O)O)COS(=O)(=O)O)nn2)C[C@@H](O[C@@H]2O[C@@H](CO)[C@H](O)C(O[C@@H](CC3CCCCC3)C(=O)N3CCC3)C2NC(C)=O)[C@@H]1O[C@@H]1OC(C)[C@@H](O)[C@H](O)C1O (stereo partly drawn) [Compound 18],170
11,CCC1CC(C(=O)NCCNC(=O)CCC(=O)O)C[C@@H](O[C@@H]2O[C@@H](CO)[C@H](O)C(O[C@@H](CC3CCCCC3)C(=O)O)C2NC(C)=O)[C@@H]1O[C@@H]1OC(C)[C@@H](O)[C@H](O)C1O (stereo partly drawn) [Compound 35],720
12,CCC1CC(C(=O)NCCNC(=O)c2cn(CCCO)nn2)C[C@@H](O[C@@H]2O[C@@H](CO)[C@H](O)C(O[C@@H](CC3CCCCC3)C(=O)N3CCC3)C2NC(C)=O)[C@@H]1O[C@@H]1OC(C)[C@@H](O)[C@H](O)C1O (stereo partly drawn) [Compound 21],520
